2 molecules from article PMC5309800, “Natural amines inhibit activation of human plasmacytoid dendritic cells through CXCR4 engagement” (Nature Communications, 2017) can be followed below.

In assay [1] the target is T1, CXC chemokine receptor 4 (CXCR4) (Homo sapiens, UniProt P61073). Put plainly: Tag-lite TR-FRET competition with CXCL12-red on HALO-CXCR4 cells; also inhibits […]5 antibody binding on Jurkat cells. Type of assay: cell-based.
The target of assay [2] is T1, CXC chemokine receptor 4 (CXCR4). Put plainly: cell-based.

T1 sequence (P61073 whole entry): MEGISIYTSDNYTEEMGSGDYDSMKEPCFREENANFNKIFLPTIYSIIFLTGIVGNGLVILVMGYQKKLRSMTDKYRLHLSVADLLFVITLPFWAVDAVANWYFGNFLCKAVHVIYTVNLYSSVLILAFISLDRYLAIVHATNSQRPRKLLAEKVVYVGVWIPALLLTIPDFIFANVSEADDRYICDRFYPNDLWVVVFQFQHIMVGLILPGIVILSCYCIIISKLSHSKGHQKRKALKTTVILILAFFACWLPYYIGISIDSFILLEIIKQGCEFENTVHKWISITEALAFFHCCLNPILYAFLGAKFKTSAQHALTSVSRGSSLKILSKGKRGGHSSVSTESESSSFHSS

As a reminder, the Ki is the dissociation constant of the complex between target and ligand, obtained from inhibition or displacement. A high value points to lower affinity. Molecule `NC(=NCc1ccc(Cl)cc1)SCCCc1cnc[nH]1` [CB, clobenpropit] displayed a Ki in assay [1] of 1.5 µM.

Consider `NCCc1c[nH]cn1` [HA, histamine], for which the Ki in assay [2] is about 26.5 µM.
